# Source: patent publication US20260287577A1, “APPLICATIONS OF HEPATOCYTE CO-CULTURE SYSTEM” (LifeNet Health, priority 2023, published 2026)
# Assays:
# Format in all cases: cell-based, human
# [1] = tested on: PHHs in the hTCS and DhTCS; test: Albumin secretion (ELISA) by PHHs in hTCS/DhTCS; details: normal PHHs in hTCS
# Method: Albumin and Urea Assays. Supernatant was collected on the indicated days for measurement of albumin and urea. Three wells or greater were designated for each condition. Samples were run in duplicate. The concentration of albumin was determined using an ELISA assay (Abcam, Cambridge, MA) and performed according to the manufacturer's instructions. Urea was measured by a colorimetric kit (Stanbio, Boerne, TX) and performed according to the manufacturer's instructions. Bicinchoninic Acid Assay (BCA). The BCA assay was performed with supernatant collected on the designated day. Three wells or greater were designated for each condition. Samples were run in duplicate. Total protein concentration was determined using a kit (Thermo Fisher, Waltham, MA) and performed according to the manufacturer's instructions. Glucose, Oleic Acid, and OCA Treatment.
# [2] = tested on: PHHs in the hTCS and DhTCS; test: Nile Red staining of lipid accumulation in PHHs cultured in hTCS/DhTCS; details: normal PHHs in hTCS, lipogenic medium plus 0.5 μM OCA
# Description: All-Human Triculture System. The hTCS was set up as previously described, including the medias, cell types, and expected functional performance. This protocol follows the guidelines of […] Health's ethics committee. All cells were isolated from donor tissue fully consented for research purposes by […] Health. PHHs have been designated as normal or diseased based on a histopathologic assessment of the tissue of origin by a board-certified pathologist, using the standard MASH CRN Scoring System. Formalin-fixed paraffin-embedded tissue sections were stained with H&E (FIG. 38) and Masson's Trichrome (FIG. 39) and assessed for steatosis, lobular inflammation, and hepatocyte ballooning to form the MAFLD Activity Score (NAS). Fibrosis was scored separately on a 4-point scale according to the classification as described by Kleiner et al (Kleiner et al., 2005). Tissues with a NAS of ≥4 were designated “Diseased” (n=4) while those with NAS of ≤3 were categorized as “Normal” (n=7) (Table 1). Glucose, Oleic Acid, and OCA Treatment. […] Nile Red Staining. Cells were washed with 1×DPBS (-Ca^++/-Mg^++) (Thermo Fisher) three times, and then Nile Red was added at a 1:500 dilution (Abcam). […] Nile Red staining was quantified by determining the densitometric fluorescence value (red channel) using Image J.
# [3] = tested on: PHHs cultured in the hTCS; test: Bile canaliculi formation, CDFDA staining; details: normal PHHs in hTCS, treated medium with addition of OCA (0.5 μM)
# Method: Glucose, Oleic Acid, and OCA Treatment. […] 5-(and-6)-Carboxy-2′, 7′-Dichlorofluorescein Diacetate Staining. To visualize bile canaliculi formation, cells were rinsed twice with 1×DPBS (—Ca^++/—Mg^++) (Thermo Fisher). Fresh medium plus 5 μM 5-(and-6)-Carboxy-2′, 7′-Dichlorofluorescein Diacetate (CDFDA) (Thermo Fisher) were added to the cells and incubated for 20 minutes at 37° C. Cells were then washed twice with 1×DPBS (—Ca^++/—Mg^++), and DMEM (no phenol red) (Gibco) was added to the cells. Images were taken with an EVOS FL cell imaging system (Thermo Fisher) using a 10× objective.
# [4] = tested on: hepatic tri-cultures; test: Cell health (morphology, urea production, LDH release), Example 9; details: TGF-β1 10 ng/ml, exposure up to 120 hr
# Method: (§1) Following exposure to methotrexate (MTX; 0.1 and 1 μM; Sigma-Aldrich, St. Louis, MO) or TGF-β1 (0.1 and 10 ng/ml; Miltenyi Biotec, Gaithersburg, MD) or vehicle (DMSO; 0.1% v/v), the expression of various genes known to have a role in fibrogenic responses (e.g., LGALS3, LOX, MMP1) was determined. MTX and TGF-β1 are known fibrogenic compounds Cell health was assessed by urea production and LDH release in the medium.
# (§2) The cell harvest and analytical endpoints were done as follows. Phase contrast images were captured each day. The media samples were collected for lactate dehydrogenase (LDH) assay at the end of each treatment period (i.e., 72 or 120 hours of treatment with each compound). The results were used to assess cell health. Cell lysates were harvested for gene expression analysis. 2 wells were combined per sample. The treatment samples were analyzed in triplicate. The following genes that have a role in fibrogenic response were observed. LGALS3 (Galectin3); LOX (lysyl oxidase), MMP1 (matrix Metalloproteinase 1); Housekeeping gene (β-actin). The images in FIGS. 44 and 45 are at 200×.
# [5] = tested on: SMAD-7, LOX, MMP1, LGALS3, UCHL1, HSP90B1, MMP14, PPAR-λ(gamma); test: Gene expression time course after TGF-β exposure, Example 10; details: 10 ng/ml, no DEX
# Method: (§3) A 24-well plate, all-human cell-based triculture system (hTCS) that includes cryopreserved primary human feeder cells (FCs) and primary human hepatocytes (PHHs) and KC were used. The ratios of hepocytes: KC of 1:4 and 1:2 were used. The cells were exposed to TGF-β (10 ng/ml), with NO DEX in the media. During exposure, the above genes were followed. The workflow was the same as described in Example 9.
# The cells were exposed to 10 ng/ml TGF-β.
# (§4) Exposure times were measured at 2, 6, 24, and 96 hours. The gene expressions SMAD-7, LOX, MMP1, LGALS3, UCHL1, HSP90B1, MMP14, PPAR-λ(gamma)) and two housekeeping genes; β-Actin (duplexed) and GAPDH were measured. Cell Health was evaluated by measuring lactate dehydrogenase (LDH), and urea production at all time points.
# [6] = tested on: MMP1 (matrix Metalloproteinase 1); test: cells
# Method: (§5) Methods: The hepatic tri-culture system, including adult primary human hepatocytes (PHHs), endothelial cells and stromal cells, was cultured with and without primary KCs, at a ratio of 1 KC:4 PHH or 1 KC:2 PHH, in a glucocorticoid-containing or -free media. […] MTX or TGF-β1 or […] (LPS) cause hepatic injury. The injury leads to lipid accumulation, lipotoxicity and cytokines are produced. These activate the KCs and the liver sinusoidal endothelial cells (LSEC). Then stromal activation and gene expressions occur, leading to liver fibrosis.
# as §1
# (§6) The experiments were done in a 96-well format according to the details shown below. […] The hepatocytes were from an individual adult lot. The Kupffer cells (KCs) were from an individual adult lot. The seeding density of the Kupffer cells to the hepatocytes was selected to mimic healthy or inflammatory physiological levels (1:4 or 1:2 ratio). The seeding of the KCs occurred on Day 1 of the culture (meaning 24 hours post-hepatocyte plating).
# (§7) All hepatocyte plating was performed using TCPM with Dex (1 μM), as above. Four hours after hepatocyte plating, TCCM was added with and without Dex (half of the cultures with Dex, half without.) The media used were those as described above. The medium exchange process was to do 50% media changes following KC plating up until the compound addition.
# (§8) Thawing and plating of the hepatocytes was done according to methods as known in the art. The next day (24 hours) after plating the cells, the KCs were added in TCCM with or without Dex (0.1 μM) at a 1:4 or 1:2 ratio to hepatocytes. The next day and subsequent days, 50% volume of medium was changed each day. Starting at day 5 of culture, the compounds tested were added in the 50% medium volume and allowed to go, unchanged, through Day 8 of culture (72 hr treatment); or to 120 hr treatment times. The treatment compounds were methotrexate (0.1 and 1.0 μM) and TGF-β1 (0.1 and 10 ng/ml).
# as §2
# [7] = tested on: LOX (lysyl oxidase); test: cells
# Method: as §5, §1, §6, §7, §8, §2
# [8] = tested on: LGALS3 (Galectin3); test: cells
# Method: as §5, §1, §6, §7, §8, §2
# [9] = tested on: hTCS with KC; test: LDH cytotoxicity, Example 10; details: 10 ng/ml, presence of Kupffer cells, after 96 hours of exposure
# Method: as §3, §4
# [10] = tested on: genes known to have a role in fibrogenic responses (e.g., LGALS3, LOX, MMP1); test: Fibrogenic response gene expression overall, Example 9
# Method: as §5, §1, §6, §7
# Thawing and plating of the hepatocytes was done according to methods as known in the art. The next day (24 hours) after plating the cells, the KCs were added in TCCM with or without Dex (0.1 μM) at a 1:4 or 1:2 ratio to hepatocytes. […]
# The cell harvest and analytical endpoints were done as follows. […] The treatment samples were analyzed in triplicate. […]
# [11] = tested on: co-cultured cells at a 1:2 Kupffer cell to hepatocyte ratio; test: Cell morphology imaging, Example 10; details: 24 hours of exposure
# Method: as §3
# [12] = tested on: hTCS with KC; test: Urea production, Example 10; details: 10 ng/ml, between 6 and 96 h
# Method: as §3, §4
# [13] = 72 hours, with Dex, No KC, TGF-β1 0.1 ng/mL
# [14] = 72 hours, with Dex, with KCs, TGF-β1 0.1 ng/mL
# [15] = 72 hours, with Dex, with KCs, TGF-β1 10 ng/mL
# [16] = 72 hours, without Dex, No KC, TGF-β1 0.1 ng/mL
# [17] = 72 hours, without Dex, No KC, TGF-β1 10 ng/mL
# [18] = 72 hours, without Dex, with KCs, TGF-β1 0.1 ng/mL
# [19] = 72 hours, without Dex, with KCs, TGF-β1 10 ng/mL
# [20] = 120 hours, with Dex, No KC, TGF-β1 0.1 ng/mL
# [21] = 120 hours, with Dex, No KC, TGF-β1 10 ng/mL
# [22] = 120 hours, with Dex, with KCs, TGF-β1 0.1 ng/mL
# [23] = 120 hours, with Dex, with KCs, TGF-β1 10 ng/mL
# [24] = 120 hours, without Dex, No KC, TGF-β1 0.1 ng/mL
# [25] = 120 hours, without Dex, No KC, TGF-β1 10 ng/mL
# [26] = 120 hours, without Dex, with KCs, TGF-β1 0.1 ng/mL
# [27] = 120 hours, without Dex, with KCs, TGF-β1 10 ng/mL
compound,measurement,setting,value
"CC[C@H]1[C@@H](O)[C@@H]2[C@H](CC[C@]3(C)[C@@H]([C@H](C)CCC(=O)O)CC[C@@H]23)[C@@]2(C)CC[C@@H](O)C[C@@H]12 [OCA, 6α-ethyl-chenodeoxycholic acid]","albumin, treated plus OCA compared to treated only","[1]; day 1, not significant",An increase in albumin
same,albumin secretion,"[1]; lipogenic medium plus 0.5 μM OCA, day 7","13,706±4,738 ng/mg total protein"
same,albumin levels,"[1]; lipogenic medium plus 0.5 μM OCA, day 14","2,219±400 ng/mg total protein"
same,Nile Red staining (lipid accumulation),[2]; day 7,134.6%±13.6
same,Nile Red staining (lipid accumulation),"[2]; day 14, significantly less than treated only, 20160 min",126.1%±8.5
same,bile canalicular network formation compared to untreated PHHs,[3],appeared to increase bile canalicular network formation
"TGF-β1: transforming growth factor-β1, pro-fibrogenic cytokine used as fibrogenic reference compound","cell stress (hepatocellular morphology, urea production, LDH release)",[4],exhibited signs of cell stress
same,gene expression,"[5]; 24 hours of exposure, 1:2 and 1:4 ratios",multiple positive signals for gene expression
same,gene expression compared to the controls,"[5]; 96 hours exposure, almost all genes, ratios 1:4 and 1:2 Kupffer cells to hepatocytes",reduced gene expression
same,MMP1 fold induction Mean,[6]; [13],0.9 fold
same,MMP1 fold induction Mean,[6]; [14],1.0 fold
same,MMP1 fold induction Mean,[6]; [15],1.3 fold
same,MMP1 fold induction Mean,[6]; [16],1.0 fold
same,MMP1 fold induction Mean,[6]; [17],1.2 fold
same,MMP1 fold induction Mean,[6]; [18],1.1 fold
same,MMP1 fold induction Mean,[6]; [19],1.2 fold
same,MMP1 fold induction Mean,[6]; [20],1.2 fold
same,MMP1 fold induction Mean,[6]; [21],1.1 fold
same,MMP1 fold induction Mean,[6]; [22],1.2 fold
same,MMP1 fold induction Mean,[6]; [23],0.1 fold
same,MMP1 fold induction Mean,[6]; [24],1.0 fold
same,MMP1 fold induction Mean,[6]; [25],1.1 fold
same,MMP1 fold induction Mean,[6]; [26],1.1 fold
same,MMP1 fold induction Mean,[6]; [27],1.7 fold
same,MMP1 gene expression,"[6]; TGF-β1 10 ng/ml, presence of KCs",increased MMP1 in a time-dependent manner
same,LOX fold induction Mean,[7]; [13],1.1 fold
same,LOX fold induction Mean,[7]; [14],1.0 fold
same,LOX fold induction Mean,[7]; [15],1.2 fold
same,LOX fold induction Mean,[7]; [16],1.2 fold
same,LOX fold induction Mean,[7]; [17],1.3 fold
same,LOX fold induction Mean,[7]; [18],1.1 fold
same,LOX fold induction Mean,[7]; [19],1.6 fold
same,LOX fold induction Mean,[7]; [20],0.9 fold
same,LOX fold induction Mean,[7]; [21],1.7 fold
same,LOX fold induction Mean,[7]; [22],1.0 fold
same,LOX fold induction Mean,[7]; [23],1.6 fold
same,LOX fold induction Mean,[7]; [24],1.2 fold
same,LOX fold induction Mean,[7]; [25],2.2 fold
same,LOX fold induction Mean,[7]; [26],1.2 fold
same,LOX fold induction Mean,[7]; [27],2.0 fold
same,LGALS3 fold induction Mean,[8]; [13],1.1 fold
same,LGALS3 fold induction Mean,"[8]; 72 hours, with Dex, No KC, TGF-β1 10 ng/mL",0.8 fold
same,LGALS3 fold induction Mean,[8]; [14],0.9 fold
same,LGALS3 fold induction Mean,[8]; [15],0.8 fold
same,LGALS3 fold induction Mean,[8]; [16],1.2 fold
same,LGALS3 fold induction Mean,[8]; [17],0.5 fold
same,LGALS3 fold induction Mean,[8]; [18],1.1 fold
same,LGALS3 fold induction Mean,[8]; [19],0.8 fold
same,LGALS3 fold induction Mean,[8]; [20],1.0 fold
same,LGALS3 fold induction Mean,[8]; [21],0.8 fold
same,LGALS3 fold induction Mean,[8]; [22],0.8 fold
same,LGALS3 fold induction Mean,[8]; [23],0.8 fold
same,LGALS3 fold induction Mean,[8]; [24],1.0 fold
same,LGALS3 fold induction Mean,[8]; [25],0.4 fold
same,LGALS3 fold induction Mean,[8]; [26],1.1 fold
same,LGALS3 fold induction Mean,[8]; [27],0.6 fold
same,cytotoxicity based on LDH production,[9],cytotoxicity of the co-cultured cells was low
same,culture conditions in which effects on fibrogenic genes were observed,"[10]; DEX / no DEX, with / without KCs","observed in both DEX and no DEX treated groups, with or without KCs"
same,gene expression,[10]; TGF-β1 0.1 ng/ml,did not affect gene expression
same,cell appearance,[11],the cells appear healthy
same,urea production rate compared to vehicle alone,[12],a decrease in the production rate
